# Source: patent EP1025097B1, “1-(2-NAPHTHYL) AND 1-(2-AZANAPHTHYL)-4-(1-PHENYLMETHYL)PIPERAZINES BEING DOPAMINE D 4? RECEPTOR SUBTYPE LIGANDS” (NEUROGEN CORPORATION, priority 1997, dated 1999)
# Biological target: T1, D2 receptors (Chlorocebus aethiops, UniProt P52702)
# T1 construct: expressed in transfected cells; host or cells: COS cells
# Experiment: Assay for D2 receptor binding activity (3H-YM 09151-2 displacement, COS cell pellets)
# Set-up: species or system African Green monkey
# Conditions: recombinant receptor in COS cells; 0.5 nM 3H-YM 09151-2
# Protocol: Pellets of COS cells containing recombinantly produced D2 or D4 receptors from African Green monkey are used for the assays. The sample is homogenized in 100 volumes (w/vol) of 0.05 M Tris HCl buffer at 4° C and pH 7.4. The sample is then centrifuged at 30,000 x g and resuspended and rehomogenized. The sample is again centrifuged as described above and the final tissue sample is frozen until use. The tissue is resuspended 1:20 (wt/vol) in 0.05 M Tris HCl buffer containing 100 mM NaCl.
# Incubations are carried out at […] and contain 0.4 ml of tissue sample, 0.5 nM ^3H-YM 09151-2 (Nemonapride, cis-5-Chloro-2-methoxy-4-(methylamino)-N-(2-methyl-2-(phenylmethyl)-3-pyrrolidinyl)benzamide)and the compound of interest in a total incubation of 1.0 ml. Nonspecific binding is defined as that binding found in the presence of […] spiperone; without further additions, nonspecific binding is less than 20% of total binding. Binding characteristics for examples of compounds encompassed within Formulae II, III and V for the D2 and D4 receptor subtypes are shown in Table 2 for […].
# T1 sequence (P52702 whole entry): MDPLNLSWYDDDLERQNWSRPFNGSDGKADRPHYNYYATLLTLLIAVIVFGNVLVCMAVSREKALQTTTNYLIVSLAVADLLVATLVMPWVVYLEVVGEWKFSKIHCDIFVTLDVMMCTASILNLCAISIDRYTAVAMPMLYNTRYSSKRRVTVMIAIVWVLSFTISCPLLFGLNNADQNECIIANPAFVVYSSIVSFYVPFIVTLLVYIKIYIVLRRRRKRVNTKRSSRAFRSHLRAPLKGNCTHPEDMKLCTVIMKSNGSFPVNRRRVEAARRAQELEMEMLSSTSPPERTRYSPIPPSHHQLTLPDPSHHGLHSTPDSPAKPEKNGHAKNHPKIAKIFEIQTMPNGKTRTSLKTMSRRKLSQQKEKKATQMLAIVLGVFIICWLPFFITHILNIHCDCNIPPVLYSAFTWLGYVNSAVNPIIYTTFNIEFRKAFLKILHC
row,Ki [µM],SMILES
1,> 4,Clc1ccc(CN2CCN(c3cnc4ccccc4n3)CC2)cc1 [Compound 3]
2,> 4,Clc1ccc(CN2CCN(c3ccc4ccccc4c3)CC2)cc1 [Compound 6]
3,> 4,Cc1ccc(CN2CCN(c3ccc4ccccc4n3)CC2)cc1 [Compound 2]
